Experimental data taken from ChEMBL document CHEMBL3758177, “Synthesis and biological evaluation of novel phosphoramidate derivatives of coumarin as chitin synthase inhibitors and antifungal agents” (Eur J Med Chem, 2016).
≈ marks a conversion by molar mass, not a printed value.

How the values were obtained:
[1] = system: Cryptococcus neoformans; assay: Antifungal activity against Cryptococcus neoformans ATCC 32719 after 24 hrs by two-fold serial dilution method; type: functional; conditions: ATCC 32719, 24 h
[2] = system: Candida albicans; assay: Antifungal activity against Candida albicans CMCC 76615 after 24 hrs by two-fold serial dilution method; type: functional; conditions: CMCC 76615, 24 h
[3] = system: Candida albicans; assay: Antifungal activity against Candida albicans CMCC 76615 after 48 hrs by microdilution method; type: functional; conditions: CMCC 76615, 48 h
[4] = system: Fusarium oxysporum; assay: Antifungal activity against Fusarium oxysporum ITCC 6246 after 48 hrs by microdilution method; type: functional; conditions: ITCC 6246, 48 h
[5] = system: Aspergillus fumigatus; assay: Antifungal activity against Aspergillus fumigatus GIMCC 3.19 after 24 hrs by two-fold serial dilution method; type: functional; conditions: GIMCC 3.19, 24 h
[6] = system: Aspergillus flavus; assay: Antifungal activity against Aspergillus flavus ATCC 16870 after 24 hrs by two-fold serial dilution method; type: functional; conditions: ATCC 16870, 24 h
[7] = system: Fusarium oxysporum; assay: Antifungal activity against Fusarium oxysporum ITCC 6246 after 48 hrs by micro-titer plate method; type: functional; conditions: ITCC 6246, 48 h
[8] = system: Candida albicans; assay: Antifungal activity against Candida albicans CMCC 76615 after seven days by disc diffusion method; type: functional
[9] = system: Pseudomonas aeruginosa; assay: Antibacterial activity against Pseudomonas aeruginosa ATCC 9027 after 24 hrs by two-fold serial dilution method; type: functional; conditions: ATCC 9027, 24 h
[10] = system: Escherichia coli; assay: Antibacterial activity against Escherichia coli JM 109 after 24 hrs by two-fold serial dilution method; type: functional; conditions: JM 109, 24 h
[11] = system: Proteus vulgaris; assay: Antibacterial activity against Proteus vulgaris ATCC 8427 after 24 hrs by two-fold serial dilution method; type: functional; conditions: ATCC 8427, 24 h
[12] = system: Staphylococcus aureus; assay: Antibacterial activity against Methicillin-resistant Staphylococcus aureus N 315 after 24 hrs by two-fold serial dilution method; type: functional; conditions: N 315, 24 h
[13] = system: Staphylococcus aureus; assay: Antibacterial activity against Staphylococcus aureus ATCC 25923 after 24 hrs by two-fold serial dilution method; type: functional; conditions: ATCC 25923, 24 h
[14] = Inhibition of Candida tropicalis ATCC 750 chitin synthase using UDP-GlcNAc as substrate after 60 mins by microplate reader method
[15] = system: Bacillus spizizenii; assay: Antibacterial activity against Bacillus subtilis ATCC 6633 after 24 hrs by two-fold serial dilution method; type: functional; conditions: ATCC 6633, 24 h
[16] = Non-competitive inhibition of Candida tropicalis ATCC 750 chitin synthase using UDP-GlcNAc as substrate by Lineweaver-Burk plot analysis
[17] = system: Candida tropicalis; assay: Inhibition of Candida tropicalis ATCC 750 chitin synthase using UDP-GlcNAc as substrate at 300 ug/ml after 60 mins by microplate reader method

Compound | MIC [1] [µg/mL] | MIC [2] [µg/mL] | MIC [3] [µg/mL] | MIC [4] [µg/mL] | MIC [5] [µg/mL] | MIC [6] [µg/mL] | MIC [7] [µg/mL] | diameter of the inhibition zone (DIZ) [8] [mm] | MIC [9] [µg/mL] | MIC [10] [µg/mL] | MIC [11] [µg/mL] | MIC [12] [µg/mL] | MIC [13] [µg/mL] | IC50 [14] [µM] | MIC [15] [µg/mL] | Ki [16] [µM] | inhibition [17] [%]
OC(Cn1cncn1)(Cn1cncn1)c1ccc(F)cc1F [FLUCONAZOLE] | 8 (≈ 26.1 µM) | 16 (≈ 52.2 µM) | 8 (≈ 26.1 µM) | 8 (≈ 26.1 µM) | 32 (≈ 104 µM) | 32 (≈ 104 µM) |  |  |  |  |  |  |  |  |  |  | 
Cc1ccc(NS(=O)(=O)c2cc3c(CN=[N+]=[N-])cc(=O)oc3cc2C)cc1 |  |  | 1 (≈ 2.6 µM) | 1 (≈ 2.6 µM) |  |  |  |  |  |  |  |  |  |  |  |  | 
C=C1CC(CC/C(C)=C\COc2ccc3ccc(=O)oc3c2)OC1=O (configuration not stated) |  |  |  |  |  |  | 19 (≈ 55.8 µM) |  |  |  |  |  |  |  |  |  | 
O=c1oc2ccccc2c(Cl)c1/C=N/c1nncs1 |  |  |  |  |  |  |  | 15 |  |  |  |  |  |  |  |  | 
COC(=O)C(Cc1ccccc1)NP(=O)(OCCN(C)c1cc(=O)oc2ccc(C(C)(C)C)cc12)Oc1ccccc1 (configuration not stated) | 8 (≈ 13.5 µM) | 8 (≈ 13.5 µM) |  |  | 32 (≈ 54 µM) | 2 (≈ 3.37 µM) |  |  | 16 (≈ 27 µM) | 16 (≈ 27 µM) | 16 (≈ 27 µM) | 128 (≈ 216 µM) | 8 (≈ 13.5 µM) | 80 | 32 (≈ 54 µM) | 96 | 90
COC(=O)C(C)NP(=O)(OCCN(C)c1cc(=O)oc2ccccc12)Oc1ccccc1 (configuration not stated) | 8 (≈ 17.4 µM) | 32 (≈ 69.5 µM) |  |  | 32 (≈ 69.5 µM) | 64 (≈ 139 µM) |  |  | 512 (≈ 1110 µM) | 512 (≈ 1110 µM) | 512 (≈ 1110 µM) | 512 (≈ 1110 µM) | 512 (≈ 1110 µM) | 150 | 512 (≈ 1110 µM) |  | 77
COC(=O)CNP(=O)(OCCN(C)c1cc(=O)oc2ccc(C)cc12)Oc1ccccc1 (configuration not stated) | 64 (≈ 139 µM) | 128 (≈ 278 µM) |  |  | 64 (≈ 139 µM) | 64 (≈ 139 µM) |  |  | 128 (≈ 278 µM) | 512 (≈ 1110 µM) | 512 (≈ 1110 µM) | 256 (≈ 556 µM) | 256 (≈ 556 µM) | 600 | 256 (≈ 556 µM) |  | 51
